Measured values as given in patent publication US20140323418A1, “SELECTIVE KINASE INHIBITORS” (PORTOLA PHARMACEUTICALS, INC., priority 2011, published 2014).

molecular target: T1, full length active recombinant SYK enzyme (Homo sapiens, UniProt P43405); assay: Inhibition of Syk tyrosine phosphorylation activity (LANCE TR-FRET kinase assay); assay type: biochemical; details: 1 nM SYK, 550 nM substrate, 100 μM ATP, 1 hour room temperature
T1 construct: full length active recombinant SYK enzyme (Millipore, Calif.); purchased Millipore

**Q.** Which IC50 does the source give for CC[C@@H](Nc1ncc(C(N)=O)c(Nc2ccc3ccncc3c2)n1)C(N)=O [Example 71, (R)-2-(1-amino-1-oxobutan-2-ylamino)-4-(isoquinolin-7-ylamino)pyrimidine-5-carboxamide] here?
**A.** 10 to 100 nM

**Q.** With NC(=O)c1cnc(N[C@@H]2CCCC[C@@H]2N)nc1Nc1ccc2ccncc2c1 [Example 73, 2-((1R,2S)-2-aminocyclohexylamino)-4-(isoquinolin-7-ylamino)pyrimidine-5-carboxamide] as the molecule, how does the IC50 read?
**A.** 10 to 100 nM

**Q.** With NC(=O)c1cnc(N[C@H](CC2CC2)C(N)=O)nc1Nc1cnc2ccccc2c1 [Example 74, (R)-2-(1-amino-3-cyclopropyl-1-oxopropan-2-ylamino)-4-(quinolin-3-ylamino)pyrimidine-5-carboxamide] as the molecule, how does the IC50 read?
**A.** 10 to 100 nM

**Q.** With NC(=O)c1cnc(N[C@@H]2CCCC[C@@H]2N)nc1Nc1ccc2cccnc2c1 [Example 75, 2-((1R,2S)-2-aminocyclohexylamino)-4-(quinolin-7-ylamino)pyrimidine-5-carboxamide] as the molecule, how does the IC50 read?
**A.** 10 to 100 nM

**Q.** Which IC50 does the source give for CCn1ccc2c(Nc3nc(NC[C@@H](N)CC(F)F)ncc3C(N)=O)cccc21 [Example 76, (S)-2-(2-amino-4,4-difluorobutylamino)-4-(1-ethyl-1H-indol-4-ylamino)pyrimidine-5-carboxamide] here?
**A.** 1 to 10 nM

**Q.** With CC(C)[C@@H](Nc1ncc(C(N)=O)c(Nc2ccc3cccnc3c2)n1)C(N)=O [Example 77, (R)-2-(1-amino-3-methyl-1-oxobutan-2-ylamino)-4-(quinolin-7-ylamino)pyrimidine-5-carboxamide] as the molecule, how does the IC50 read?
**A.** 100 to 1000 nM

**Q.** Cc1cccc(Nc2nc(NC[C@@H](N)CC(F)F)ncc2C(N)=O)c1 [Example 78, (S)-4-(m-toluidino)-2-(2-amino-4,4-difluorobutylamino)pyrimidine-5-carboxamide] was tested. Which IC50 did it give?
**A.** 10 to 100 nM

**Q.** For N#Cc1cccc(Nc2nc(NC[C@@H](N)CC(F)F)ncc2C(N)=O)c1 [Example 82, (S)-2-(2-amino-4,4-difluorobutylamino)-4-(3-cyanophenylamino)pyrimidine-5-carboxamide], which IC50 is on record?
**A.** 100 to 1000 nM

**Q.** How did the IC50 turn out when Cc1ccc(Nc2nc(NC[C@@H](N)CC(F)F)ncc2C(N)=O)cc1 [Example 83, (S)-4-(p-toluidino)-2-(2-amino-4,4-difluorobutylamino)pyrimidine-5-carboxamide] was run?
**A.** 100 to 1000 nM

**Q.** Which IC50 does the source give for NC(=O)c1cnc(NC[C@@H](N)CC(F)F)nc1Nc1cccc2c1ccn2CC(F)(F)F [Example 84, (S)-2-(2-amino-4,4-difluorobutylamino)-4-(1-(2,2,2-trifluoroethyl)-1H-indol-4-ylamino)pyrimidine-5-carboxamide] here?
**A.** 1 to 10 nM

**Q.** How did the IC50 turn out when Cn1ccc2c(Nc3nc(NC[C@@H](N)CC(F)F)ncc3C(N)=O)cccc21 [Example 85, (S)-2-(2-amino-4,4-difluorobutylamino)-4-(1-methyl-1H-indol-4-ylamino)pyrimidine-5-carboxamide] was run?
**A.** 1 to 10 nM

**Q.** Which IC50 does the source give for Cn1ccc2c(Nc3nc(NC[C@@H](N)CC(F)F)ncc3C(N)=O)ccc(F)c21 [Example 86, (S)-2-(2-amino-4,4-difluorobutylamino)-4-(7-fluoro-1-methyl-1H-indol-4-ylamino)pyrimidine-5-carboxamide] here?
**A.** 10 to 100 nM

**Q.** For Cc1cc2c(Nc3nc(NC[C@@H](N)CC(F)F)ncc3C(N)=O)cccc2n1C [Example 87, (S)-2-(2-amino-4,4-difluorobutylamino)-4-(1,2-dimethyl-1H-indol-4-ylamino)pyrimidine-5-carboxamide], which IC50 is on record?
**A.** 10 to 100 nM

**Q.** Which IC50 does the source give for CCn1ccc2c(Nc3nc(N[C@@H](CN)C4CC4)ncc3C(N)=O)cccc21 [Example 88, (R)-2-(2-amino-1-cyclopropylethylamino)-4-(1-ethyl-1H-indol-4-ylamino)pyrimidine-5-carboxamide] here?
**A.** 1 to 10 nM

**Q.** How did the IC50 turn out when Cc1cccc(Nc2nc(N[C@@H](CN)CC(F)F)ncc2C(N)=O)c1 [Example 89, (R)-4-(m-toluidino)-2-(1-amino-4,4-difluorobutan-2-ylamino)pyrimidine-5-carboxamide] was run?
**A.** 10 to 100 nM

**Q.** Which IC50 does the source give for Cn1ccc2c(Nc3nc(N[C@@H]4CCCC(F)(F)[C@@H]4N)ncc3C(N)=O)cccc21 [Example 91, 2-((1R,2R)-2-amino-3,3-difluorocyclohexylamino)-4-(1-methyl-1H-indol-4-ylamino)pyrimidine-5-carboxamide] here?
**A.** 10 to 100 nM

**Q.** How did the IC50 turn out when CCn1ccc2c(Nc3nc(N[C@@H]4CCCC(F)(F)[C@@H]4N)ncc3C(N)=O)cccc21 [Example 92, 2-((1R,2R)-2-amino-3,3-difluorocyclohexylamino)-4-(1-ethyl-1H-indol-4-ylamino)pyrimidine-5-carboxamide] was run?
**A.** 10 to 100 nM

**Q.** How did the IC50 turn out when NC(=O)c1cnc(N[C@@H]2CCCC(F)(F)[C@@H]2N)nc1Nc1cccc2c1ccn2CC(F)(F)F [Example 93, 2-((1R,2R)-2-amino-3,3-difluorocyclohexylamino)-4-(1-(2,2,2-trifluoroethyl)-1H-indol-4-ylamino)pyrimidine-5-carboxamide] was run?
**A.** 10 to 100 nM

**Q.** For Cn1ccc2c(Nc3nc(NC[C@@H](N)CC(F)F)ncc3C(N)=O)ccnc21 [Example 94, (S)-2-(2-amino-4,4-difluorobutylamino)-4-(1-methyl-1H-pyrrolo[2,3-b]pyridin-4-ylamino)pyrimidine-5-carboxamide], which IC50 is on record?
**A.** 1 to 10 nM

**Q.** With NC(=O)c1cnc(NC[C@@H](N)CC(F)F)nc1Nc1cccc(-c2ncccn2)c1 [Example 95, (S)-2-(2-amino-4,4-difluorobutylamino)-4-(3-(pyrimidin-2-yl)phenylamino)pyrimidine-5-carboxamide] as the molecule, how does the IC50 read?
**A.** 100 to 1000 nM

**Q.** How did the IC50 turn out when CN1C(=O)Cc2c(Nc3nc(N[C@@H]4CCCC[C@@H]4N)ncc3C(N)=O)cccc21 [Example 96, 2-((1R,2S)-2-aminocyclohexylamino)-4-(1-methyl-2-oxoindolin-4-ylamino)pyrimidine-5-carboxamide] was run?
**A.** 100 to 1000 nM

**Q.** How did the IC50 turn out when NC(=O)c1cnc(NC[C@@H](N)CC(F)F)nc1Nc1cccc2c1CCN2CC(F)(F)F [Example 97] was run?
**A.** 10 to 100 nM

**Q.** For CN1CCc2c(Nc3nc(NC[C@@H](N)CC(F)F)ncc3C(N)=O)cccc21 [Example 98, (S)-2-(2-amino-4,4-difluorobutylamino)-4-(1-methylindolin-4-ylamino)pyrimidine-5-carboxamide], which IC50 is on record?
**A.** 10 to 100 nM

**Q.** For CCN1CCc2c(Nc3nc(N[C@@H](CN)C4CC4)ncc3C(N)=O)cccc21 [Example 99, (R)-2-(2-amino-1-cyclopropylethylamino)-4-(1-ethylindolin-4-ylamino)pyrimidine-5-carboxamide], which IC50 is on record?
**A.** 10 to 100 nM

**Q.** How did the IC50 turn out when CCc1c(C)c2c(Nc3nc(N[C@@H]4CCCC[C@@H]4N)ncc3C(N)=O)cccc2n1C [Example 100, 2-((1R,2S)-2-aminocyclohexylamino)-4-(2-ethyl-1,3-dimethyl-1H-indol-4-ylamino)pyrimidine-5-carboxamide] was run?
**A.** 100 to 1000 nM

**Q.** How did the IC50 turn out when CCc1c(C)n(C)c2cccc(Nc3nc(N[C@@H]4CCCC[C@@H]4N)ncc3C(N)=O)c12 [Example 101, 2-((1R,2S)-2-aminocyclohexylamino)-4-(3-ethyl-1,2-dimethyl-1H-indol-4-ylamino)pyrimidine-5-carboxamide] was run?
**A.** 100 to 1000 nM

**Q.** How did the IC50 turn out when CCCc1cc2c(Nc3nc(N[C@@H]4CCCC[C@@H]4N)ncc3C(N)=O)cccc2n1C [Example 102, 2-((1R,2S)-2-aminocyclohexylamino)-4-(1-methyl-2-propyl-1H-indol-4-ylamino)pyrimidine-5-carboxamide] was run?
**A.** 10 to 100 nM

**Q.** Which IC50 does the source give for Cn1cc(C#N)c2c(Nc3nc(N[C@@H]4CCCC[C@@H]4N)ncc3C(N)=O)cccc21 [Example 103, 2-((1R,2S)-2-aminocyclohexylamino)-4-(3-cyano-1-methyl-1H-indol-4-ylamino)pyrimidine-5-carboxamide] here?
**A.** 100 to 1000 nM

**Q.** Cn1ccc2c(Nc3nc(NCC(N)C(C)(F)F)ncc3C(N)=O)cccc21 (centres unmarked) [Example 104, 2-(2-amino-3,3-difluorobutylamino)-4-(1-methyl-1H-indol-4-ylamino)pyrimidine-5-carboxamide] was tested. Which IC50 did it give?
**A.** 10 to 100 nM

**Q.** Which IC50 does the source give for Cc1cccc(Nc2nc(NCC(N)C(C)(F)F)ncc2C(N)=O)c1 (centres unmarked) [Example 105, 4-(m-toluidino)-2-(2-amino-3,3-difluorobutylamino)pyrimidine-5-carboxamide] here?
**A.** 100 to 1000 nM

**Q.** With NC(=O)c1cnc(NCC2(N)CC2)nc1Nc1cccc(-n2cccn2)c1 [Example 106, 4-(3-(1H-pyrazol-1-yl)phenylamino)-2-((1-aminocyclopropyl)methylamino)pyrimidine-5-carboxamide] as the molecule, how does the IC50 read?
**A.** 10 to 100 nM

**Q.** Cn1ccc2c(Nc3nc(N[C@@H]4CCCC[C@@H]4O)ncc3C(N)=O)cccc21 [Example 107, 2-((1R,2S)-2-hydroxycyclohexylamino)-4-(1-methyl-1H-indol-4-ylamino)pyrimidine-5-carboxamide] was tested. Which IC50 did it give?
**A.** 100 to 1000 nM

**Q.** How did the IC50 turn out when Cn1ccc2c(Nc3nc(NC4CCCCC4)ncc3C(N)=O)cccc21 [Example 108, 2-(cyclohexylamino)-4-(1-methyl-1H-indol-4-ylamino)pyrimidine-5-carboxamide] was run?
**A.** 100 to 1000 nM

**Q.** With Cn1ccc2c(Nc3nc(NC4(C#N)CC4)ncc3C(N)=O)cccc21 [Example 109, 2-(1-cyanocyclopropylamino)-4-(1-methyl-1H-indol-4-ylamino)pyrimidine-5-carboxamide] as the molecule, how does the IC50 read?
**A.** 100 to 1000 nM

**Q.** How did the IC50 turn out when C[C@@H](Nc1ncc(C(N)=O)c(Nc2cccc3c2ccn3C)n1)C1CC1 [Example 110, (R)-2-(1-cyclopropylethylamino)-4-(1-methyl-1H-indol-4-ylamino)pyrimidine-5-carboxamide] was run?
**A.** 100 to 1000 nM

**Q.** For Cn1ccc2c(Nc3nc(NCC4CCCC4)ncc3C(N)=O)cccc21 [Example 111, 2-(cyclopentylmethylamino)-4-(1-methyl-1H-indol-4-ylamino)pyrimidine-5-carboxamide], which IC50 is on record?
**A.** 100 to 1000 nM

**Q.** Which IC50 does the source give for Cn1ccc2c(Nc3nc(NCC4CC4)ncc3C(N)=O)cccc21 [Example 112, 2-(cyclopropylmethylamino)-4-(1-methyl-1H-indol-4-ylamino)pyrimidine-5-carboxamide] here?
**A.** 100 to 1000 nM

**Q.** Which IC50 does the source give for CCn1ccc2c(Nc3nc(Nc4ccc5c(c4)CC(=O)N5)ncc3C(N)=O)cccc21 [Example 113, 4-(1-ethyl-1H-indol-4-ylamino)-2-(2-oxoindolin-5-ylamino)pyrimidine-5-carboxamide] here?
**A.** 10 to 100 nM
